Among the data in ChEMBL document CHEMBL6103550, “Pyrazolo-1-carbothioamides as EGR-1-DNA binding disruptors” (Bioorg Med Chem Lett, 2025) are Activity values, retold here.

Chain of Early growth response protein 1 (Homo sapiens) (P18146 whole entry, looked up): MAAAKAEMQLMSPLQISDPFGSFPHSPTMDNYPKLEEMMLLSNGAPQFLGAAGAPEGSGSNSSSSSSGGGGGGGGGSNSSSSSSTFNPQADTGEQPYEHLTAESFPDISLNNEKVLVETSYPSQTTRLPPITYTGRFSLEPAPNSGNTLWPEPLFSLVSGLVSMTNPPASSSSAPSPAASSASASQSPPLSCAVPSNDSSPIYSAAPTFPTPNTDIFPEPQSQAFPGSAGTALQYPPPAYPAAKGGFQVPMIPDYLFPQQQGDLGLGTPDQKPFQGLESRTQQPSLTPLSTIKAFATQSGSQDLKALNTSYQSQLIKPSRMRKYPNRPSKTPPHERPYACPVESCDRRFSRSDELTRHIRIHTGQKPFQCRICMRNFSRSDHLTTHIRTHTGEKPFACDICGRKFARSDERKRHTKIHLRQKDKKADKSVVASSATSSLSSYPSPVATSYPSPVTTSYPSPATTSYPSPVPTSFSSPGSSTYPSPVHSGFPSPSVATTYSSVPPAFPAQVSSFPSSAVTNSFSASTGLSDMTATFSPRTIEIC

The first test concerns the target Early growth response protein 1 (Homo sapiens) (UniProt P18146). In words: Disruption of EGR-1-DNA binding in TNF-alpha-stimulated human HaCaT cell nuclear extract assessed as reduction in DNA-protein complex formation pretreated for 1 hr followed by incubation of nuclear extract with biotin-EBS oligonucleotide probe (5'-CAAAAAGGAGGAAGGTGAGGGAA-biotin-3') by EMSA analysis. It counts as subcellular. The note with it: Nucleus, dose 10-20 µM.
On to `COc1ccc(NC(=S)N2N=C(c3ccc4ccccc4c3O)CC2c2c(OC)cc(OC)cc2OC)c(OC)c1` (racemic), for which the Activity result is “Dose-dependent-effect”.

A further test shares this target. In words: Disruption of EGR-1-DNA binding in TNF-alpha-stimulated human HaCaT cells assessed as decrease in TSLP mRNA level in presence of TNF-alpha by RT-PCR analysis. It counts as cell-based. The note with it: dose 10-20 µM.
Turning to `COc1ccc(NC(=S)N2N=C(c3ccc4ccccc4c3O)CC2c2c(OC)cc(OC)cc2OC)c(OC)c1` (racemic), the Activity result is “Dose-dependent-effect”.

Another test has the same target. In words: Disruption of EGR-1-DNA binding in TNF-alpha-stimulated human HaCaT cells assessed as decrease in IL-6 mRNA level in presence of TNF-alpha by RT-PCR analysis. The note with it: dose 10-20 µM. The class given is cell-based.
Take `COc1ccc(NC(=S)N2N=C(c3ccc4ccccc4c3O)CC2c2c(OC)cc(OC)cc2OC)c(OC)c1` (racemic): the Activity result is “Dose-dependent-effect”.

A further test shares this target. In words: Disruption of EGR-1-DNA binding in TNF-alpha-stimulated human HaCaT cells assessed as decrease in CCL-2 mRNA level in presence of TNF-alpha by RT-PCR analysis. The class given is cell-based. The note with it: dose 10-20 µM.
Take `COc1ccc(NC(=S)N2N=C(c3ccc4ccccc4c3O)CC2c2c(OC)cc(OC)cc2OC)c(OC)c1` (racemic): the Activity result was “Dose-dependent-effect”.

The next test shares this target. In words: Disruption of EGR-1-DNA binding in human HaCaT cell nuclear extract at 50 uM in the presence of biotin-EBS oligonucleotide probe (5'-CAAAAAGGAGGAAGGTGAGGGAA-biotin-3') and poly(dI-dC) by EMSA analysis relative to control.
Settings: not given
The class given is subcellular.
Regarding `COc1cc(O)c(C2=NN(C(=S)Nc3cc(OC)c(OC)c(OC)c3)C(c3cccc4ccccc34)C2)c(OC)c1` (stereo not given), the Activity was determined as 38.2%.

As for `COc1cccc(C2CC(c3ccc4ccccc4c3O)=NN2C(=S)Nc2ccc(OC)cc2OC)c1` (stereo not given), the Activity turned out to be 27%.

Consider `COc1ccc(NC(=S)N2N=C(c3ccc4ccccc4c3O)CC2c2cccc(OC)c2OC)c(OC)c1` (stereo not given), for which the Activity came to 67.8%. On the same count and under the same terms, under `COc1cccc(NC(=S)N2N=C(c3c(O)cc(OC)cc3OC)CC2c2ccc(OC)c3ccccc23)c1` (stereo not given) stands 56.7%; under `COc1cccc(NC(=S)N2N=C(c3ccc4ccccc4c3O)CC2c2ccccc2OC)c1` (stereo not given), 44.8%; under `COc1ccccc1NC(=S)N1N=C(c2c(O)cccc2OC)CC1c1cccc2ccccc12` (stereo not given), 40.9%. Same read-out and setting: under `COc1cc(NC(=S)N2N=C(c3c(O)cccc3OC)CC2c2cccc3ccccc23)cc(OC)c1OC` (stereo not given) stands 51.6%; under `COc1cc(OC)cc(C2CC(c3ccc4ccccc4c3O)=NN2C(=S)Nc2cc(OC)c(OC)c(OC)c2)c1` (stereo not given), 67.5%. On the same count and under the same terms, as for `COc1ccc(NC(=S)N2N=C(c3ccc4ccccc4c3O)CC2c2ccc(OC)cc2OC)cc1` (stereo not given), the figure is 44.5%.

With `COc1cc(NC(=S)N2N=C(c3c(O)cccc3OC)CC2c2ccc(OC)c3ccccc23)cc(OC)c1OC` (stereo not given), the Activity is 71.8%.

With `COc1ccc(C2CC(c3ccc4ccccc4c3O)=NN2C(=S)Nc2ccccc2OC)c(OC)c1` (stereo not given), the Activity was found to be 46%. Regarding `COc1cc(OC)cc(C2CC(c3ccc4ccccc4c3O)=NN2C(=S)Nc2ccccc2OC)c1` (stereo not given), the Activity amounted to 40.8%. Still for that read-out and setting: as for `COc1cc(O)c(C2=NN(C(=S)Nc3ccccc3OC)C(c3cccc4ccccc34)C2)c(OC)c1` (stereo not given), the figure is 71.3%; as for `COc1ccccc1NC(=S)N1N=C(c2c(O)cccc2OC)CC1c1ccc(OC)c2ccccc12` (stereo not given), 67.3%. The same measure, in the same setting: as for `COc1cccc(NC(=S)N2N=C(c3c(O)cccc3OC)CC2c2cccc3ccccc23)c1` (stereo not given), the figure is 36.4%; as for `COc1cccc(NC(=S)N2N=C(c3c(O)cc(OC)cc3OC)CC2c2cccc3ccccc23)c1` (stereo not given), 53.3%; as for `COc1cccc(NC(=S)N2N=C(c3ccc4ccccc4c3O)CC2c2ccc(OC)cc2OC)c1` (stereo not given), 48%. As for `COc1ccc(NC(=S)N2N=C(c3ccc(OC)cc3O)CC2c2ccc(OC)c3ccccc23)cc1` (stereo not given), the Activity was found to be 74.4%.

As to `COc1ccc(C2CC(c3ccc4ccccc4c3O)=NN2C(=S)Nc2ccccc2)c(OC)c1OC` (stereo not given), the Activity was found to be 44%.

Regarding `COc1cccc(NC(=S)N2N=C(c3ccc4ccccc4c3O)CC2c2cc(OC)c(OC)cc2OC)c1` (stereo not given), the Activity amounted to 55.5%. Same read-out and setting: under `COc1ccc(C2CC(c3ccc4ccccc4c3O)=NN2C(=S)Nc2ccccc2)cc1` (stereo not given) stands 52.8%; under `COc1ccc(C2CC(c3ccc4ccccc4c3O)=NN2C(=S)Nc2cc(OC)c(OC)c(OO)c2)cc1` (stereo not given), 70.5%; under `COc1cccc(O)c1C1=NN(C(=S)Nc2ccccc2)C(c2ccc(OC)c3ccccc23)C1` (stereo not given), 64%.

With `COc1cccc(NC(=S)N2N=C(c3c(O)cccc3OC)CC2c2ccc(OC)c3ccccc23)c1` (stereo not given), the Activity was found to be 62.7%. The same measure, in the same setting: as for `COc1ccc(NC(=S)N2N=C(c3ccc4ccccc4c3O)CC2c2c(OC)cc(OC)cc2OC)cc1` (stereo not given), the figure is 64.2%. On the same count and under the same terms, as for `COc1cc(OC)cc(C2CC(c3ccc4ccccc4c3O)=NN2C(=S)Nc2ccccc2)c1` (stereo not given), the figure is 59%.

Consider `COc1ccccc1NC(=S)N1N=C(c2cc(OC)c(OC)cc2O)CC1c1cccc2ccccc12` (stereo not given), for which the Activity worked out at 53.3%.

Consider `COc1ccc(C2CC(c3ccc4ccccc4c3O)=NN2C(=S)Nc2ccc(OC)cc2OC)cc1` (stereo not given), for which the Activity was 64.2%.

Regarding `COc1cc(O)c(C2=NN(C(=S)Nc3cc(OC)c(OC)c(OC)c3)C(c3ccc(OC)c4ccccc34)C2)cc1OC` (stereo not given), the Activity is 59.1%.

In the case of `COc1ccc(NC(=S)N2N=C(c3ccc4ccccc4c3O)CC2c2cccc(OC)c2OC)cc1` (stereo not given), the Activity was 27%.

Regarding `COc1cccc(C2CC(c3ccc4ccccc4c3O)=NN2C(=S)Nc2cc(OC)c(OC)c(OC)c2)c1` (stereo not given), the Activity stood at 30.8%.

Take `COc1ccc(NC(=S)N2N=C(c3c(O)ccc4ccccc34)CC2c2ccccc2OC)cc1` (stereo not given): the Activity is 31.8%. Same read-out and setting: under `COc1ccc(NC(=S)N2N=C(c3ccc(OC)cc3O)CC2c2cccc3ccccc23)cc1` (stereo not given) stands 35.1%; under `COc1ccccc1NC(=S)N1N=C(c2c(O)ccc3ccccc23)CC1c1ccccc1OC` (stereo not given), 22.9%. Same read-out and setting: under `COc1cccc(NC(=S)N2N=C(c3ccc4ccccc4c3O)CC2c2c(OC)cc(OC)cc2OC)c1` (stereo not given) stands 64.8%. Same read-out and setting: under `COc1ccc(NC(=S)N2N=C(c3c(O)cccc3OC)CC2c2cccc3ccccc23)cc1` (stereo not given) stands 54%; under `COc1ccc(NC(=S)N2N=C(c3c(O)cccc3OC)CC2c2ccc(OC)c3ccccc23)cc1` (stereo not given), 66.7%. For the compound `COc1ccccc1NC(=S)N1N=C(c2ccccc2O)CC1c1ccc(OC)c2ccccc12` (stereo not given), the Activity was found to be 29.1%. Still for that read-out and setting: as for `COc1ccc(NC(=S)N2N=C(c3ccc4ccccc4c3O)CC2c2ccccc2OC)cc1` (stereo not given), the figure is 31.2%; as for `COc1ccc(C2CC(c3ccccc3O)=NN2C(=S)Nc2ccccc2)c2ccccc12` (stereo not given), 22.7%. Same read-out and setting: as for `COc1ccccc1NC(=S)N1N=C(c2ccc3ccccc3c2O)CC1c1ccc(OC)c(OC)c1OC` (stereo not given), the figure is 46.5%; as for `COc1ccc(C2=NN(C(=S)Nc3ccccc3)C(c3cccc4ccccc34)C2)c(O)c1` (stereo not given), 35.1%. Still for that read-out and setting: under `COc1ccc(NC(=S)N2N=C(c3ccc4ccccc4c3O)CC2c2c(OC)cc(OC)cc2OC)c(OC)c1` (racemic) stands 82.2%; under `COc1ccc(NC(=S)N2N=C(c3cc(OC)ccc3O)CC2c2ccc(OC)c3ccccc23)cc1` (stereo not given), 28%. Consider `COc1ccc(NC(=S)N2N=C(c3cc(OC)c(OC)cc3O)CC2c2cccc3ccccc23)cc1` (stereo not given), for which the Activity came out at 46.9%. Same read-out and setting: under `COc1ccc(NC(=S)N2N=C(c3ccc4ccccc4c3O)CC2c2ccc(OC)c(OC)c2OC)cc1` (stereo not given) stands 49.5%; under `COc1cc(O)c(C2=NN(C(=S)Nc3cc(OC)c(OC)c(OC)c3)C(c3cccc4ccccc34)C2)cc1OC` (stereo not given), 42.4%. Still for that read-out and setting: under `COc1ccccc1NC(=S)N1N=C(c2ccc3ccccc3c2O)CC1c1ccccc1OC` (stereo not given) stands 33.2%. Same read-out and setting: under `COc1ccc(NC(=S)N2N=C(c3ccc4ccccc4c3O)CC2c2ccc(OC)cc2OC)c(OC)c1` (stereo not given) stands 60.2%; under `COc1ccc(NC(=S)N2N=C(c3ccc4ccccc4c3O)CC2c2cc(OC)c(OC)cc2OC)c(OC)c1` (stereo not given), 56.5%; under `COc1cccc(NC(=S)N2N=C(c3cc(OC)c(OC)cc3O)CC2c2cccc3ccccc23)c1` (stereo not given), 36.4%. As for `COc1cccc(NC(=S)N2N=C(c3ccc4ccccc4c3O)CC2c2ccc(OC)c(OC)c2OC)c1` (stereo not given), the Activity worked out at 38%. The same measure, in the same setting: under `COc1cccc(NC(=S)N2N=C(c3ccc4ccccc4c3O)CC2c2cc(OC)cc(OC)c2)c1` (stereo not given) stands 42.8%. The same measure, in the same setting: under `COc1ccc(/C=C/c2cc(OC)cc(OC)c2-c2oc3ccc([N+](=O)[O-])cc3c(=O)c2O)cc1` stands 36.5%; under `COc1ccc(NC(=S)N2N=C(c3ccc4ccccc4c3O)CC2c2cc(OC)c(OC)cc2OC)cc1` (stereo not given), 69%; under `COc1cc(O)c(C2=NN(C(=S)Nc3ccccc3)C(c3cccc4ccccc34)C2)cc1OC` (stereo not given), 53.6%.

Turning to `COc1ccc(NC(=S)N2N=C(c3cc(OC)c(OC)cc3O)CC2c2ccc(OC)c3ccccc23)cc1` (stereo not given), the Activity stood at 57.3%. As for `COc1ccc(NC(=S)N2N=C(c3ccc4ccccc4c3O)CC2c2ccc(OC)c(OC)c2OC)c(OC)c1` (stereo not given), the Activity was found to be 46.8%. On the same count and under the same terms, under `COc1ccc(C2=NN(C(=S)Nc3cc(OC)c(OC)c(OC)c3)C(c3ccc(OC)c4ccccc34)C2)c(O)c1` (stereo not given) stands 73.3%; under `COc1cccc(NC(=S)N2N=C(c3ccc4ccccc4c3O)CC2c2cccc(OC)c2)c1` (stereo not given), 16.5%.

For `COc1cccc(NC(=S)N2N=C(c3ccc(OC)cc3O)CC2c2cccc3ccccc23)c1` (stereo not given), the Activity is 32%. On the same count and under the same terms, under `COc1ccc(C2=NN(C(=S)Nc3ccccc3OC)C(c3ccc(OC)c4ccccc34)C2)c(O)c1` (stereo not given) stands 57.3%; under `COc1cc(O)c(C2=NN(C(=S)Nc3ccccc3OC)C(c3ccc(OC)c4ccccc34)C2)c(OC)c1` (stereo not given), 70.7%.

On to `COc1ccccc1NC(=S)N1N=C(c2ccc3ccccc3c2O)CC1c1cc(OC)c(OC)cc1OC` (stereo not given), for which the Activity turned out to be 68.8%. Regarding `COc1cccc(NC(=S)N2N=C(c3ccccc3O)CC2c2ccc(OC)c3ccccc23)c1` (stereo not given), the Activity came to 17.1%.

In the case of `COc1cc(NC(=S)N2N=C(c3ccc4ccccc4c3O)CC2c2cccc(OC)c2OC)cc(OC)c1OC` (stereo not given), the Activity amounted to 35.6%. The same measure, in the same setting: under `COc1ccc(O)c(C2=NN(C(=S)Nc3ccccc3OC)C(c3ccc(OC)c4ccccc34)C2)c1` (stereo not given) stands 21.8%. Same read-out and setting: as for `COc1cc(OC)c(C2CC(c3ccc4ccccc4c3O)=NN2C(=S)Nc2ccccc2)cc1OC` (stereo not given), the figure is 81.8%; as for `COc1cc(O)c(C2=NN(C(=S)Nc3ccccc3)C(c3ccc(OC)c4ccccc34)C2)c(OC)c1` (stereo not given), 73.3%; as for `COc1cccc(NC(=S)N2N=C(c3ccc(OC)cc3O)CC2c2ccc(OC)c3ccccc23)c1` (stereo not given), 56.4%.

Another test has the same target. In words: Disruption of EGR-1-DNA binding in TNF-alpha-stimulated human HaCaT cells assessed as decrease in IL-31 mRNA level in presence of TNF-alpha by RT-PCR analysis. Particulars: dose 10-20 µM. The class given is cell-based.
Regarding `COc1ccc(NC(=S)N2N=C(c3ccc4ccccc4c3O)CC2c2c(OC)cc(OC)cc2OC)c(OC)c1` (racemic), the Activity result is “Dose-dependent-effect”.
